# In patent publication US6930098B2, “Use of polysulphated cyclodextrins for treating osteoarthritis” (Universiteit Gent, priority 2000, dated 2005):
# Tested on: Human articular chondrocytes
# Experiment: Synthesis of extracellular aggrecans by chondrocytes cultured in agarose gel (35S incorporation)
# Type: cell-based
# Conditions: 2.5 μg/ml, 48 hours with Na2 35SO4 after culturing for two weeks; for Amount of 35S-aggrecans associated with the cells: cell-associated fraction; for Amount of 35S-aggrecans in the medium: incubation medium fraction; for Amount of 35S-aggrecans in the interterritorial matrix: interterritorial matrix fraction
# Experimental: Evaluation of the in vitro effects of polysulphated cyclodextrins on the synthesis of extracellular aggrecans by chondrocytes.
# Human articular chondrocytes are isolated according to the methods described by W. T. Green Jr (Clin. Orthop., 1971, 75, 248-260) and K. E. Kuettner et al. (J. Cell. Biol., 1982, 93, 743-750).
# The chondrocytes are then cultured in agarose gel, in accordance with the method described by P. D. Benya et al. (Cell., 1982, 30, 215-224) and modified according to M. Cornelissen et al. (J. Tiss. Cult. Meth., 1993, 15, 139-146) and according to G. Verbruggen et al. (Clin. Exp. Rheumatol, 1990, 8, 371-378).
# Synthesis of aggrecans: This is measured by determining the incorporation of 35S, supplied by a radioactive precursor, sodium sulphate Na2^35SO4. After culturing for two weeks, 10 μCi/ml of the radio-labelled precursor are introduced into the culture medium for 48 hours, as well as the compounds under test (polysulphated α-, β- and γ-cyclodextrins) or the reference compounds (chondroitin sulphate and polysulphate) at an end concentration of 2.5 μg/ml.
# The newly synthesised ^35S-aggrecans accumulate partly in the intercellular agarose medium or are released into the incubation medium.
# At the end of the incubation period, the agarose gel is broken up mechanically and is then digested with 3 ml of a 50 U/ml solution of […] in a 0.067M phosphate buffer at pH 6.0, in the presence of proteinase inhibitors.
# The suspension thereby obtained is centrifuged; the supernatant, which comprises the ^35S-aggrecans of the interterritorial matrix, and the incubation medium, comprising the metabolites of ^35S-aggrecans released into the extracellular matrix, are combined for subsequent chromatography.
# The centrifuged pellet, comprising the chondrocytes and the ^35S-aggrecans associated therewith, is treated for 48 hours with 1 ml of a 4.0M solution of guanidinium chloride in a 0.05M acetate buffer at pH 5.8 comprising the proteinase inhibitors. The objective of this operation is to extract the ^35S-aggrecans associated with the cells. The solution obtained is centrifuged to separate the cells from the supernatant, which is separated off for subsequent chromatography. The chromatography operations on the various fractions obtained are carried out on Sephadex G25 gel in a pH 6.8 phosphate buffer containing 0.01M Na2SO4, so as to separate the ^35S-aggrecans from the free Na2^35SO4.
# The radioactivity of each of the macromolecular eluates obtained is measured and related to the number of chondrocytes contained in the initial culture and is expressed in terms of pg of SO4 incorporated into the aggrecans, per million chondrocytes and per hour.
Substance,Amount of 35S-aggrecans associated with the cells,Amount of 35S-aggrecans in the medium,Amount of 35S-aggrecans in the interterritorial matrix
"chondroitin polysulphate [CPS, reference compound]","1392 pg of SO4 incorporated into the aggrecans, per million chondrocytes and per hour","2519 pg of SO4 incorporated into the aggrecans, per million chondrocytes and per hour","6446 pg of SO4 incorporated into the aggrecans, per million chondrocytes and per hour"
"chondroitin sulphate [CS, reference compound]","1373 pg of SO4 incorporated into the aggrecans, per million chondrocytes and per hour","2187 pg of SO4 incorporated into the aggrecans, per million chondrocytes and per hour","6589 pg of SO4 incorporated into the aggrecans, per million chondrocytes and per hour"
polysulphate β-cyclodextrin [β CD],"2262 pg of SO4 incorporated into the aggrecans, per million chondrocytes and per hour","1658 pg of SO4 incorporated into the aggrecans, per million chondrocytes and per hour","6232 pg of SO4 incorporated into the aggrecans, per million chondrocytes and per hour"
polysulphated α-cyclodextrin [α CD],"1315 pg of SO4 incorporated into the aggrecans, per million chondrocytes and per hour","1589 pg of SO4 incorporated into the aggrecans, per million chondrocytes and per hour","8036 pg of SO4 incorporated into the aggrecans, per million chondrocytes and per hour"
polysulphated γ-cyclodextrin [γ CD],"2907 pg of SO4 incorporated into the aggrecans, per million chondrocytes and per hour","3873 pg of SO4 incorporated into the aggrecans, per million chondrocytes and per hour","8232 pg of SO4 incorporated into the aggrecans, per million chondrocytes and per hour"
